Experiments:
Type in all cases: cell-based, human
beige adipocytes = assay: MitoTracker staining of adipocytes after 8-Br-cAMP; conditions: after 48 hours, vs basal
Procedure: (§1) The adipocytes were optionally treated for 6 hours with 10^−5 M isoproterenol (Sigma), then the protein samples were collected. For a longer stimulation, the adipocytes were treated with a non-metabolizable cAMP analogue, 8-Br-cAMP (Sigma), for 48 hours.
Living cells at D20 of differentiation were incubated with 1 μM MitoTracker® Red CMXRos (Life Technologies®) for 45 minutes in the dark at 37° C., 5% CO2. After rinsing twice with PBS, the cells were fixed with 3% PFA for 15 minutes at room temperature. The preparation was then incubated for 15 minutes with 1 ng/mL BODIPY 493/503 (Molecular Probes®, D-3922) then rinsed 3 times with PBS before being incubated for 5 minutes in DAPI (4′-6-diamidino-2-phenylindole, VWR). After applying the mounting medium (Fluoromount-G™, Southern Biotech), the cells were observed using a confocal microscope (Leica).

[1] = test system: PGC1α, PRDM16, PPARα and DIO2; assay: Real-time quantitative PCR of thermogenesis genes after 8-Br-cAMP; conditions: after 48 hours, D20 adipocytes, vs basal
Procedure: Total RNAs were extracted using the NucleoSpin RNA kit (Macherey Nagel) according to the manufacturer's recommendations. The concentration of total RNAs extracted and their contamination by solvents or salts were evaluated by microspectrophotometry (Nanodrop). Reverse transcription was carried out using the High Capacity cDNA Reverse Transcription Kit (Applied Biosystems). Quantitative PCR was then carried out by adding 2 μL of cDNA diluted 10 times, 10 μL of SYBR Green I PCR mix (Roche Diagnostics, including DNA polymerase, dNTPs, 3 mM MgCl2 and SYBR Green fluorescent probe), 0.2 μM sense primer and 0.2 μM antisense primer (Table 2 below). The reference gene GAPDH was used to normalize the expression of the genes of interest.
as §1

[2] = test system: insulin receptor (IR) and AKT/PKB; assay: Short insulin treatment of adipocytes derived from iPS cells, phospho-specific Western blot; conditions: adipocytes after 20 days of differentiation
Procedure: The adipocytes were lysed in a suitable volume of lysis buffer (50 mM Tris pH 7.4, 0.27 M sucrose, 1 mM Na-orthovanadate pH 10, 1 mM EDTA, 1 mM EGTA, 10 mM (3-glycerophosphate, 50 mM NaF, 5 mM pyrophosphate, 1% (w/v) Triton X-100, 0.1% (w/v) 2-β-mercaptoethanol, and protease inhibitors). The total lysates were centrifuged (15,000 g, 4° C. for 10 minutes) then stored at −80° C. until use. The protein concentrations were determined using the Bradford method with bovine albumin as the standard. The samples underwent SDS/PAGE migration on polyacrylamide gels and then were transferred onto nitrocellulose membranes (Amersham Biosciences), blocked for 2 hours at room temperature in TBS-T buffer (50 mM Tris-HCl pH 7.6, 150 mM NaCl, 0.1% (v/v) Tween-20) supplemented with 5% (w/v) skimmed milk or BSA, and incubated with the various antibodies specific to the protein of interest (Table 1 above).
The nitrocellulose membranes were rinsed 3×5 minutes in TBS-T buffer before being incubated with the secondary antibody coupled to peroxidase. The signals were detected using chemiluminescence (Pierce-Perbio Biotechnologies) by exposure on autoradiographic film (Kodak).

Compound: Nc1ncnc2c1nc(Br)n2[C@@H]1O[C@@H]2COP(=O)(O)O[C@H]2[C@H]1O [8-Br-cAMP]
- number of mitochondria in the beige adipocytes (beige adipocytes): increase in the number of mitochondria
- expression of genes involved in thermogenesis (PGC1α, PRDM16, PPARα, DIO2) [1]: increase

Compound: insulin
- phosphorylation of the insulin receptor (IR) subunit and its target AKT [2]: strong phosphorylation

From US20170211043A1, “METHOD FOR IN VITRO PRODUCTION OF ADIPOCYTE PROGENITORS AND ADIPOCYTES” (UNIVERSITE PIERRE ET MARIE CURIE (PARIS 6), priority 2014, published 2017)
